Assay results as given in patent publication US6706663B2, “Herbicidal 3-heterocyclic substituted benzisothiazole and benzisoxazole compounds” (Wyeth, priority 2000, dated 2004).

Legend:
[1] = system: SAGPY (Sagittaria pygmaea); assay: Flooded paddy, preemergence weed control; format: in vivo, L.; settings: rated 3-4 weeks after treatment, 0-9 rating scale
Method in brief: (§1)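 Scoring used a 0-9 visual scale relative to control. Before that, seeds or propagules were planted shallowly in silt loam and flooded to 1.5–3 cm, a depth maintained throughout, with greenhouse care during the test.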

ORYSAT (Rice, Tebonnet) [2] = assay: Postemergence herbicidal evaluation; format: in vivo, Oryza sativa, (L.) Tebonnet; settings: postemergence
Method in brief: (§2)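 Visual 0–9 injury scores versus control plants, covering stand, vigour, malformation, size, chlorosis and general appearance, taken four to five weeks post-spray and averaged over replicate tests. Plants were sprayed at roughly two weeks old and held on greenhouse benches.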

[3] = system: TRZAWR (Wheat, Winter, cv Riband); assay: Preemergence herbicidal evaluation; format: in vivo, Triticum aestivum; settings: preemergence, rated 4-5 weeks after treatment
Method in brief: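 Preemergence soil spray, aq. acetone; greenhouse; visual 0–9 score vs control at 4–5 wk.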

ORYSAT (Rice, Tebonnet) [4] = assay: Preemergence herbicidal evaluation; format: in vivo, Oryza sativa, (L.) Tebonnet; settings: preemergence, rated 4-5 weeks after treatment
[5] = system: CASOB (Cassia obtusifolia); assay: Postemergence herbicidal evaluation; format: in vivo, L.; settings: postemergence
Method in brief: as §2

[6] = system: AMBEL (Ambrosia artemisifolia); assay: Postemergence herbicidal evaluation; format: in vivo, L.; settings: postemergence
Method in brief: as §2

[7] = system: CHEAL (Chenopodium album); assay: Postemergence herbicidal evaluation; format: in vivo, L.; settings: postemergence
Method in brief: as §2

[8] = system: GLXMAW (Soybean, Williams); assay: Preemergence herbicidal evaluation; format: in vivo, Glycine max, (L.) Merr. cv Williams; settings: preemergence, rated 4-5 weeks after treatment
[9] = system: ECHORC (Echinochloa oryzoides); assay: Flooded paddy, preemergence weed control; format: in vivo, Echinochloa oryzoides (Ard.) Fritsch.; settings: rated 3-4 weeks after treatment, 0-9 rating scale
Method in brief: as §1

[10] = system: ECHCG (Echinochloa crus-galli); assay: Postemergence herbicidal evaluation; format: in vivo, (L.) Beau; settings: postemergence
Method in brief: as §2

ZEAMX (Corn, Field) = assay: Postemergence herbicidal evaluation; format: in vivo, Zea mays, L.; settings: postemergence
Method in brief: as §2

CYPIR (Cyperus iria) = assay: Flooded paddy, preemergence weed control; format: in vivo; settings: rated 3-4 weeks after treatment, 0-9 rating scale
Method in brief: as §1

[11] = system: IPOHE (Ipomoea hederacea); assay: Preemergence herbicidal evaluation; format: in vivo, (L.) Jacq.; settings: preemergence, rated 4-5 weeks after treatment

| SMILES | herbicidal rating, SAGPY ([1]; rate 0.1250 kg/ha) | ORYSAT herbicidal rating (ORYSAT (Rice, Tebonnet) [2]; rate 0.0320 kg/ha) | ORYSAT herbicidal rating (ORYSAT (Rice, Tebonnet) [2]; rate 0.0620 kg/ha) | Preemergence herbicidal rating TRZAWR ([3]; rate 0.0620 kg/ha) | Preemergence herbicidal rating TRZAWR ([3]; rate 0.1250 kg/ha) | Preemergence herbicidal rating TRZAWR ([3]; rate 0.2500 kg/ha) | Preemergence herbicidal rating ORYSAT (ORYSAT (Rice, Tebonnet) [4]; rate 0.0620 kg/ha) | Preemergence herbicidal rating ORYSAT (ORYSAT (Rice, Tebonnet) [4]; rate 0.1250 kg/ha) | Preemergence herbicidal rating ORYSAT (ORYSAT (Rice, Tebonnet) [4]; rate 0.2500 kg/ha) | CASOB herbicidal rating ([5]; rate 0.0320 kg/ha) | CASOB herbicidal rating ([5]; rate 0.0620 kg/ha) | AMBEL herbicidal rating ([6]; rate 0.0320 kg/ha) | AMBEL herbicidal rating ([6]; rate 0.0620 kg/ha) | CHEAL herbicidal rating ([7]; rate 0.0320 kg/ha) | CHEAL herbicidal rating ([7]; rate 0.0620 kg/ha) | Preemergence herbicidal rating GLXMAW ([8]; rate 0.0620 kg/ha) | Preemergence herbicidal rating GLXMAW ([8]; rate 0.1250 kg/ha) | Preemergence herbicidal rating GLXMAW ([8]; rate 0.2500 kg/ha) | herbicidal rating, ECHORC ([9]; rate 0.1250 kg/ha) | ECHCG herbicidal rating ([10]; rate 0.0320 kg/ha) | further results |
| --- | --- | --- | --- | --- | --- | --- | --- | --- | --- | --- | --- | --- | --- | --- | --- | --- | --- | --- | --- | --- | --- |
| Cn1c(C(F)(F)F)cc(=O)n(-c2ccc3snc(-c4ccoc4)c3c2)c1=O [Compound 83, 3-[3-(3-furyl)-1,2-benzisothiazol-5-yl]-1-methyl-6-(trifluoromethyl)uracil] | 0.0 | 1.5 | 3.0 | 3.0 | 4.0 | 5.0 | 0.0 | 3.5 | 5.5 | 4.0 | 6.0 | 2.0 | 6.0 | 3.0 | 6.0 | 0.0 | 2.5 | 6.0 | 7.0 | 2.0 | herbicidal rating, SAGPY ([1]; rate 0.0080 kg/ha): 0.0; herbicidal rating, SAGPY ([1]; rate 0.0320 kg/ha): 0.0; herbicidal rating, ECHORC ([9]; rate 0.0080 kg/ha): 0.0; herbicidal rating, ECHORC ([9]; rate 0.0320 kg/ha): 6.0; ECHCG herbicidal rating ([10]; rate 0.0620 kg/ha): 3.0; ZEAMX herbicidal rating (ZEAMX (Corn, Field); rate 0.0320 kg/ha): 2.5; ZEAMX herbicidal rating (ZEAMX (Corn, Field); rate 0.0620 kg/ha): 3.0; herbicidal rating, CYPIR (CYPIR (Cyperus iria); rate 0.0080 kg/ha): 0.0; herbicidal rating, CYPIR (CYPIR (Cyperus iria); rate 0.0320 kg/ha): 0.0; herbicidal rating, CYPIR (CYPIR (Cyperus iria); rate 0.1250 kg/ha): 3.0; Preemergence herbicidal rating IPOHE ([11]; rate 0.0620 kg/ha): 3.0; Preemergence herbicidal rating IPOHE ([11]; rate 0.1250 kg/ha): 5.0; Preemergence herbicidal rating IPOHE ([11]; rate 0.2500 kg/ha): 5.5 |
| Cn1c(C(F)(F)F)cc(=O)n(-c2ccc3snc(-c4sccc4CO)c3c2)c1=O [Compound 85, 3-[3-[3-(hydroxymethyl)-2-thienyl]-1,2-benzisothiazol-5-yl]-1-methyl-6-(trifluoromethyl)uracil] | 7.0 | 3.5 | 4.5 | 0.0 | 0.0 | 3.0 | 2.0 | 6.0 | 7.0 | 4.0 | 4.0 | 5.0 | 9.0 | 9.0 | 9.0 | 0.0 | 3.0 | 9.0 | 8.0 | 0.0 | SAGPY herbicidal rating ([1]; rate 0.0080 kg/ha): 0.0; SAGPY herbicidal rating ([1]; rate 0.0320 kg/ha): 1.5; ECHORC herbicidal rating ([9]; rate 0.0080 kg/ha): 0.0; ECHORC herbicidal rating ([9]; rate 0.0320 kg/ha): 5.0; ECHCG herbicidal rating ([10]; rate 0.0620 kg/ha): 2.0; ZEAMX herbicidal rating (ZEAMX (Corn, Field); rate 0.0320 kg/ha): 4.5; ZEAMX herbicidal rating (ZEAMX (Corn, Field); rate 0.0620 kg/ha): 5.0; CYPIR herbicidal rating (CYPIR (Cyperus iria); rate 0.0080 kg/ha): 0.0; CYPIR herbicidal rating (CYPIR (Cyperus iria); rate 0.0320 kg/ha): 0.0; herbicidal rating, CYPIR (CYPIR (Cyperus iria); rate 0.1250 kg/ha): 6.0; Preemergence herbicidal rating IPOHE ([11]; rate 0.0620 kg/ha): 0.0; Preemergence herbicidal rating IPOHE ([11]; rate 0.1250 kg/ha): 4.0; Preemergence herbicidal rating IPOHE ([11]; rate 0.2500 kg/ha): 7.0 |
